Measurements from PMC7180572, “5-Alkylamino-N-phenylpyrazine-2-carboxamides: Design, Preparation, and Antimycobacterial Evaluation” (Molecules, 2020).
pIC50: −log10 of the molar value. In brackets after ≈: the same amount, converted by molar mass.

Legend:
[1] = system: M. avium ssp. avium CNCTC My 80/72 (ATCC 15769); experiment: 96 well plate microdilution broth method with Alamar Blue; format: cell-based; settings: Mycobacterium avium, ATCC15769; Middlebrook 7H9 broth pH 6.6; read-out: MIC Mycobacterium avium
[2] = format: physicochemical
Protocol: As a complementary test, final compounds were tested for in vitro activity against selected fungal and bacterial pathogens of clinical importance. The microdilution broth method was performed according to The European Committee on Antimicrobial Susceptibility Testing (EUCAST) instructions with slight modifications. The minimum inhibitory concentration was expressed in µM. Not all compounds were evaluated due to the fact of a problem with solubility which occurred for 18 samples. […] See Supplementary Materials for the list of tested strains, methodology, and full results.

[3] = system: Mycobacterium tuberculosis H37Ra ITM-M006710 (ATCC 9431); experiment: Microdilution broth, modified Microplate Alamar Blue Assay, whole cell growth inhibition; format: cell-based; settings: Mycobacterium tuberculosis; in vitro, Middlebrook 7H9 broth, resazurin; read-out: MIC Mtb H37Ra
[4] = system: Mycobacterium smegmatis DSM 43465 (ATCC 607); experiment: as above; format: cell-based; settings: Mycolicibacterium smegmatis; in vitro, Middlebrook 7H9 broth, resazurin; read-out: MIC Mycobacterium smegmatis
[5] = system: M. kansasii CNCTC My 235/80 (ATCC 12478); experiment: 96 well plate microdilution broth method with Alamar Blue; format: cell-based; settings: Mycobacterium kansasii, ATCC12478; Middlebrook 7H9 broth pH 6.6; read-out: MIC Mycobacterium kansasii
[6] = system: Mycobacterium aurum DSM 43999 (ATCC 23366); experiment: Microdilution broth, modified Microplate Alamar Blue Assay, whole cell growth inhibition; format: cell-based; settings: Mycolicibacterium aurum; in vitro, Middlebrook 7H9 broth, resazurin; read-out: MIC Mycobacterium aurum
HepG2 cells = experiment: HepG2 cytotoxicity, CellTiter 96 (MTS) assay; format: cell-based, human; settings: for pIC50: Homo sapiens, HepG2, 24 h incubation, > means higher concentration not reproducible due to precipitation, read-out: HepG2 IC50
[7] = system: Staphylococcus aureus spp.aureus ATCC 29213, CCM 4223; experiment: Antibacterial microdilution broth method (EUCAST); format: cell-based; settings: 48 h, read-out: MIC against Staphylococcus aureus
[8] = system: Enterococcus faecalis ATCC 29212, CCM 4224; experiment: Antibacterial microdilution broth method (EUCAST); format: cell-based; settings: 48 h, read-out: MIC against Enterococcus faecalis
Serratia marcescens = experiment: Antibacterial microdilution broth method (EUCAST); format: cell-based; settings: 48 h, standards, read-out: MIC against Serratia marcescens
[9] = system: Staphylococcus aureus methicillin resistant ATCC 43300, CCM 4750; experiment: microbe, parasite or virus in culture; format: cell-based; settings: 48 h, read-out: MIC against Staphylococcus aureus methicillin resistant
[10] = system: Staphylococcus epidermidis ATCC 12228, CCM 4418; experiment: Antibacterial microdilution broth method (EUCAST); format: cell-based; settings: 48 h, read-out: MIC against Staphylococcus epidermidis
[11] = system: Escherichia coli ATCC 25922, CCM 3954; experiment: Antibacterial microdilution broth method (EUCAST); format: cell-based; settings: 48 h, read-out: MIC against Escherichia coli
[12] = system: Klebsiella pneumoniae ATCC 10031, CCM 4415; experiment: Antibacterial microdilution broth method (EUCAST); settings: Klebsiella pneumoniae, ATCC10031|CCM4415, 48 h, read-out: MIC against Klebsiella pneumoniae
[13] = system: Pseudomonas aeruginosa ATCC 27853, CCM 3955; experiment: Antibacterial microdilution broth method (EUCAST); format: cell-based; settings: 48 h, read-out: MIC against Pseudomonas aeruginosa

| SMILES | MIC [1] | Solubility problem in antibacterial/antifungal testing [2] | MIC [3] | MIC [4] | MIC [5] | melting point | MIC [6] | pIC50 (HepG2 cells) | SI, selectivity index (HepG2 cells; IC50 (HepG2)/MIC against Mtb H37Ra (in µM)) | MIC [7] | MIC [8] | MIC (Serratia marcescens) | MIC [9] | MIC [10] | MIC [11] | MIC [12] | MIC [13] |
| --- | --- | --- | --- | --- | --- | --- | --- | --- | --- | --- | --- | --- | --- | --- | --- | --- | --- |
| CCCCCNc1cnc(C(=O)Nc2ccc(Cl)cc2O)cn1 [Compound 6c, N-(4-chloro-2-hydroxyphenyl)-5-(pentylamino)pyrazine-2-carboxamide] | > 100 µg/mL | did not dissolve in DMSO | ≥ 500 µg/mL | 3.91 µg/mL (≈ 11.7 µM) | 25 µg/mL (≈ 74.7 µM) | 206.5 to 208.7 °C | ≥ 500 µg/mL | 4.09 | – | – | – | – | – | – | – | – | – |
| CCCCCCNc1cnc(C(=O)Nc2ccc(Cl)cc2O)cn1 [Compound 6d, N-(4-chloro-2-hydroxyphenyl)-5-(hexylamino)pyrazine-2-carboxamide] | > 100 µg/mL | did not dissolve in DMSO | 3.13 µg/mL (≈ 8.97 µM) | 3.91 µg/mL (≈ 11.2 µM) | 25 µg/mL (≈ 71.7 µM) | 201.7 to 204.9 °C | ≥ 500 µg/mL | < 4.30 | >5.27 | – | – | – | – | – | – | – | – |
| CCCCCCCNc1cnc(C(=O)Nc2ccc(Cl)cc2O)cn1 [Compound 6e, N-(4-chloro-2-hydroxyphenyl)-5-(heptylamino)pyrazine-2-carboxamide] | > 100 µg/mL | did not dissolve in DMSO | ≥ 500 µg/mL | ≥ 500 µg/mL | 25 µg/mL (≈ 68.9 µM) | 199.8 to 200.8 °C | ≥ 500 µg/mL | < 4.60 | – | – | – | – | – | – | – | – | – |
| CNC(C)C1CCC(N)C(OC2C(N)CC(N)C(OC3OCC(C)(O)C(NC)C3O)C2O)O1 (stereo not drawn) [gentamicin, reference compound] | – | – | – | – | – | – | – | – | – | 1 µg/mL (≈ 2.09 µM) | 8 µg/mL (≈ 16.8 µM) | 2 µg/mL (≈ 4.19 µM) | 16 to 32 µg/mL (≈ 33.5 to 67 µM) | > 8 µg/mL | 1 to 2 µg/mL (≈ 2.09 to 4.19 µM) | > 8 µg/mL | 0.5 µg/mL (≈ 1.05 µM) |
